US20090275667A1, “USE OF ALLICIN AS PRESERVATIVE, AS DISINFECTANT, AS ANTIMICROBIAL OR AS BIOCIDAL AGENT” (Stone Island Holdings Ltd, priority 2003, published 2009)
Values after ≈ are worked out from the molar mass of the structure shown.

Experiments:
chickens = assay: In vivo trial of allicin in the drinking water of chickens, two sheds
Protocol: An in vivo trial has also been conducted in which two adjacent sheds each of 10,000 chickens were compared. Each shed was supplied with 1000 litres of water per day. For 7 days, the water for one shed had 1.5 litres of allicin solution (1000 ppm) added to the water supply, with 1 litre of allicin solution (1000 ppm) being added per day for a further 3 days. In the control shed, no allicin solution was added.
After just a few days, an improvement in the appearance of the health of the chickens in the allicin-treated shed was noted. For example, the combs of the chickens appeared redder and there was an increase of 2 percent in egg production. The vitality of the chickens improved. In contrast, in the control barn, E. coli infection was observed. Following completion of the trial, the livers of several of the birds were examined.

E. coli = assay: Zones of Inhibition against common chicken bacteria; assay type: cell-based; conditions: Escherichia coli
Ascosphaera aggregata = assay: MIC by broth microdilution, bee pathogens; assay type: cell-based; conditions: range 1000 ppm to 0.25 ppm
From the text: (§1) We tested allicia (Allisure™ Liquid) activity against several species of entomopathogenic bacteria (Paenibacillus larvae subsp. larvae, Paenibacillus larvae subsp. pulvifaciens) and fungi (Ascosphaera apis and Ascosphaera aggregata) using broth microdilution method to determine minimum inhibitory concentration (MIC) and the agar diffusion test (Kirby-Bauer) to determine zone of inhibition. Bacterial spores were isolated from the diseased honey bee larval samples. […]
(§2) Fungal spores (Ascosphaera apis) were collected from black honey bee mummies and (Ascosphaera aggregata) spores were collected from the diseased leaf cutter bees. […] The fungal colonies were analyzed by microscopic preparations of aerial mycelia and fungal spore cysts. […]
(§3) Positive controls contained the antibiotic Tylosin (Tylan® 50, Elanco Animal Health Inc., IN) and negative controls contained no antibiotics. […] The optical densities of cultures (OD 600) were recorded 24 h and 48 h post inoculation, depending on the growth rate of the microbial species. […] Minimum bactericidal concentration values (NBC) were determined for allicin by plating out 100 μl of bacterial cultures derived from the MIC assay. […]

Ascosphaera apis = assay: MIC by broth microdilution, bee pathogens; assay type: cell-based; conditions: range 1000 ppm to 0.25 ppm
From the text: as §1, §2, §3

P. larvae subsp. larvae = assay: Investigation into bacteriostatic or bactericidal effects (Study 2); assay type: cell-based, Paenibacillus larvae subsp. larvae; set-up: key to Growth in broth after exposure to test Item at concentration indicated: *: Growth present in one replicate only
Protocol: Where there was no growth in a replicate, at the end of one week the culture was plated out for single colonies on the appropriate agar. This was to determine whether the test item had bactericidal activity, where all the bacterial cells are killed, or bacteriostatic action, where the cells are unable to replicate in the presence of the substance, but will grow when it is removed. A further test, where 0.5 ml of the broth was transferred into 4.5 ml fresh broth (giving a 1:10 dilution) was also undertaken. There would still be some Allicin in the broth, but it should be present at a low enough concentration for growth not to be affected. Where growth occurred in the absence of Allicin, the broth was examined microscopically and plated out for single colonies to confirm the identity of the bacterium.

[1] = system: E. coli, Listeria, E. faecalis and other bacteria associated with animal diseases; conditions: laboratory tests of earlier application WO03/024437; cited from earlier work
[2] = system: methicillin resistant Staphylococcus aureus (MRSA); conditions: certain species of MRSA; earlier application WO03/024437; cited from earlier work

SMILES: C=CCS[S+]([O-])CC=C (centres unmarked) [allicin, Allicin]
- increase in egg production (chickens; allicin solution (1000 ppm) 1.5 litres/day in 1000 litres water for 7 days, then 1 litre/day for 3 days, vs control shed): 2%
- resistance to chicken bloodlice (chickens; allicin-treated shed vs control shed): improved resistance
- evidence of E. coli infection in livers (chickens; livers examined after completion of the trial, vs control chickens): did not
- zone of inhibition at 166 ppm (E. coli; 166 ppm (1:6 dilution)): 0 mm
- zone of inhibition at 1000 ppm (E. coli; 1000 ppm): 17 mm
- MIC (Ascosphaera aggregata): 250 µg/mL (≈ 1540 µM)
- MIC (Ascosphaera apis): 250 µg/mL (≈ 1540 µM)
- Growth in broth after exposure to test Item at concentration indicated (P. larvae subsp. larvae; 50 ppm, 10% inoculum transferred to fresh broth): *
- bacteriostatic or bactericidal effect (P. larvae subsp. larvae; conclusion from subculture after exposure): a bactericidal effect appeared to be observed
- concentration at which allicin can kill the bacteria [1]: up to 500 ppm
- susceptibility of MRSA to allicin [2]: exceptionally susceptible
